The values below come from publication PMC10266688 (PLOS ONE, 2023).

One may read the IC50 as the midpoint of a concentration-inhibition curve. Low values mean greater potency, high ones weaker potency.

Data set [1] concerns the target T1, 42kDa cellular protein (RPN13) (Homo sapiens, UniProt Q16186).
T1 construct: endogenous in cells; host or cells: HeLa cell lysate
In words: Competition for RA190B binding in HeLa cell lysate. To be noted: HeLa lysate pre-treated with compound (5 μM) 45 min 4°C, then RA190B (20 μM). How it is done:
NEM (1 mM) used as positive control.

Another data set has as its system TC1-OVA cells. In words: Antigen presentation (H-2Kb/[…]) by TC1-OVA cells, flow cytometry. The class given is cell-based, mouse. To be noted: 0.25 μM, 12 h.
Data set [2] relates to HMW polyUb proteins in ES2 cells. The data set can be described thus: Western blot for polyubiquitinated proteins. To be noted: by 12 h. A general note: A western blot detects proteins with antibodies after separation by electrophoresis.
In data set [3] the test system is proteasome (4UbFL reporter). In words: 4UbFL reporter assay in ES2 cells. To be noted: 4 h. Type of data set: cell-based, human. How it is done:
Sub-confluent cultures of cells were transfected with 4UbFL plasmid using TransIT 2020 reagent (Mirus Bio). Cells were seeded at 10,000 cells/well in 96-well plates 48 h post transfection, and incubated with compounds or vehicle (DMSO) at the doses and for the times indicated. Luciferase activity in cell lysate was determined with a luciferase assay kit (Promega) according to the manufacturer’s instructions. Bioluminescence was measured using a Glomax Multidetection system (Promega).
Two days later, luciferin was injected IP and the baseline enzymic activity of luciferase in the transduced muscle tissue was visualized as bioluminescence within this region of interest (ROI) using an IVIS imager. […]. After 4h, 24h and 48h the mice were again injected with luciferin, imaged and bioluminescence was quantified (Fig 5B). […] A) ES2 cells stably transduced with the 4UbFL reporter plasmid were treated with compounds at indicated doses for 4 h. The cells were then washed, lysed and their luminescence measured by a luminometer after addition of luciferin. B) Female CD1 mice electroporated with 4UbFL plasmid in their leg muscle. After 48 h, the mice were injected with luciferin, imaged by IVIS for their basal bioluminescence and randomized into two groups of five. […]. D) Up284 tissue distribution. […].

The next data set has as its system HeLa cells. The data set can be described thus: MTT cytotoxicity assay, HeLa cells, 72 h. Type of data set: cell-based. To be noted: Homo sapiens, 72 h treatment. (Tetrazolium dyes change colour on reduction, which living cells bring about.)
The next data set relates to SKOV3 cells. The data set can be described thus: MTT cytotoxicity assay, SKOV3 cells, 72 h. The class given is cell-based. To be noted: Homo sapiens, SK-OV-3; 72 h treatment.
Data set [4] has as its system proteasome (4UbFL reporter). In words: 4UbFL reporter in ES2-4UbFL tumor and leg muscle of nude mice. To be noted: single IP dose Up284 20mg/kg or bortezomib 0.75 mg/kg, 4 h and 24 h. The class given is in vivo, mouse. Here is the method: A-C) Female nude mice were inoculated IP with ES2-luc cells, a human ovarian cancer line expressing luciferase. […] The IP tumor tissue and electroporated normal muscle tissue, being spatially distinct, were identified with separate regions of interest (ROI) after simultaneous imaging with IVIS.
Briefly mice were inoculated IP with ES2 cells stably expressing 4UbFL. After 48 h, the mice were injected with luciferin, imaged and then randomized into 3 groups (n = 5/group). Next, leg muscle of each mouse was electroporated with 4UbFL plasmid (considered as normal tissue). After 48 h (i.e. day 4) the mice were re-imaged and basal bioluminescence (0 h) was separately measured in the leg muscle and peritoneal ROIs.

Data set [5] is described as follows: Repeat dosing toxicity study: hematologic parameters. To be noted: female CD1 mice, Up284 20 mg/kg, Bortezomib 1 mg/kg.
Procedure: The mice were divided into three groups consisting of three female CD1 mice each. […] Terminal blood sampling for hematological and serum biochemical analysis was performed on Day 7 of the study, 24 h after the last dosing. […] Terminal bleeding and euthanasia were performed on Day 7, 24 h after the third dosing. Blood collection was carried out after 6 h fasting. Animals were injected IP with 2,2,2-tribromoethanol (200 mg/kg) and the blood was collected from orbital sinuses into dry microtainers without anticoagulant. For the serum collection, the tubes with collected blood were held at RT for 15–60 min after blood drawing to form a clot, and then were centrifuged at 9000 rpm for 20 min at 4°C. The collected serum was frozen within 60–80 min after blood drawing and was stored at -20°C for further clinical chemistry analysis. For the hematological study, 25 μL of fresh blood was quickly mixed with an equal volume of 0.36% solution of K2EDTA in saline. Assessment of the hematological parameters was performed using the BIO TE hematology analyzer MCL-3124 and consumable reagents (Cormay) within 2 h of the blood draw. For clinical chemistry analyses, ASAT, ALAT, ALP, LDH, GGT, CK, Creatinine, Urea and TP were determined in the serum using commercial kits according to the manufacturer’s instructions.
Another data set deals with TOV21G and ES2 cells. The data set can be described thus: Annexin V apoptosis assay. To be noted: TOV21G and ES2, 12 h.

Where “and” joins values, the source holds several entries; their conditions need not be identical. Equal values may be shown once.

T1 sequence (Q16186 2-407): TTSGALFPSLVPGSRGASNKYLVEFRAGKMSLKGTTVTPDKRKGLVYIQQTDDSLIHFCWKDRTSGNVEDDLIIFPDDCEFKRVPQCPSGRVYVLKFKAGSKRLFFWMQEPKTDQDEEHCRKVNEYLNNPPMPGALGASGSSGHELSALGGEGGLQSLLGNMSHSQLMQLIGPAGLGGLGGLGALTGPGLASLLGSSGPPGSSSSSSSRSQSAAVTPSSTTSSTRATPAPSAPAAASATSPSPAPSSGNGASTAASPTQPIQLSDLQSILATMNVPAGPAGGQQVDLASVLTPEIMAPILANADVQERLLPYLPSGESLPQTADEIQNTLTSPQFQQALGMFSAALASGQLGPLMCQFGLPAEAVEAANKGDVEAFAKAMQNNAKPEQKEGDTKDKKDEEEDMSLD
Procedure for TC1-OVA cells: TC1 cells stably expressing Ovalbumin (TC1-OVA) were plated (125,000 cells/well) in a 6 well plate in 2 mL RPMI complete medium.
C) TC1-OVA cells were plated (125,000 cells/well) in a 6 well plate in 2 mL/well in complete medium.

Regarding `Cl.N[C@@H](Cc1ccccc1)C(=O)N1C/C(=C/c2ccc(Cl)c(Cl)c2)C(=O)/C(=C\c2ccc(Cl)c(Cl)c2)C1` [RA190, reference compound], the “competition for RA190B binding to the 42KDa cellular protein” value (“competition for RA190B binding” for short) in data set [1] is “competed”. For the same molecule, the “MHC class I antigen presentation (SIINFEKL on H-2Kb)” value in the data set on TC1-OVA cells is recorded as “enhance MHC class I presentation”. Also, the “accumulation of HMW polyUb proteins” value in [2] is on record as “profound accumulation”. Moreover, the “stabilization of 4UbFL reporter (fold increase in luminescence)” value in data set [3] was “dose-dependent stabilization”.
Regarding `N#Cc1ccc(/C=C2/C(=O)/C(=C/c3ccc(C#N)cc3)C23CCN(C(=O)C(F)(F)F)CC3)cc1` [Up290], the IC50 was determined as 150 nM with HeLa cells and 290 nM in the data set with SKOV3 cells.
Take `C=CC(=O)N1CCC2(CC1)/C(=C\c1ccc(C#N)cc1)C(=O)/C2=C/c1ccc(C#N)cc1` [Up285]: the IC50 turned out to be 25 nM in the data set with HeLa cells and 60 nM in the data set with SKOV3 cells. In addition, in data set [1], the “competition for RA190B binding” value is “competed”.
As for `N#Cc1ccc(/C=C2/C(=O)/C(=C/c3ccc(C#N)cc3)C23CCN(C(=O)c2ccccc2)CC3)cc1` [Up288], the half-maximal inhibitory concentration (IC50) in the data set on HeLa cells was 280 nM; in the data set on SKOV3 cells, 390 nM.
Take `N#Cc1ccc(/C=C2/C(=O)/C(=C/c3ccc(C#N)cc3)C23CCNC3)cc1` [Up302]: the results for the IC50 in the data set on HeLa cells and in the data set on SKOV3 cells were 80 nM and 170 nM, respectively.
In the case of `CCCC(CCC)C(=O)N1CCC2(CC1)/C(=C\c1ccc(C#N)cc1)C(=O)/C2=C/c1ccc(C#N)cc1` [Up291], the results for the IC50 in the data set with HeLa cells and in the data set on SKOV3 cells were 250 nM and 420 nM, respectively.
In the case of `CC(C)C[C@H](NC(=O)[C@H](Cc1ccccc1)NC(=O)c1cnccn1)B(O)O` [bortezomib], the “competition for RA190B binding” value in data set [1] was “did not compete”. In addition, the “MHC class I antigen presentation (SIINFEKL on H-2Kb)” value with TC1-OVA cells is given as “did not”. Also, the “4UbFL bioluminescence signal in muscle tissue vs tumor” value in data set [4] is given as “similarly enhanced the bioluminescence signal”. Besides, the MPV was 5.70 fL in data set [5] (group Mean); 5.70 fL and 5.60 fL and 5.80 fL in data set [5] (individual mice).
Regarding `N.N.[Cl][Pt][Cl]` [cisplatin, reference compound], the “Annexin-V positive cells, single agent” value with TOV21G and ES2 cells is recorded as “minimal impact”.
On to `C=CC(=O)N1CCC2(C1)/C(=C\c1ccc(C#N)cc1)C(=O)/C2=C/c1ccc(C#N)cc1` (centres unmarked) [Up306], for which the results for the IC50 in the data set with HeLa cells and in the data set with SKOV3 cells were 50 nM and 120 nM, respectively.
